Each block holds one molecule with its values, some of them ahead of it. Activity calls are given as the source filed them.
Key:
Estrogen receptor [1] = molecular target: T1, Estrogen receptor (Homo sapiens, UniProt P03372); experiment: potentiators of ERα–SRC-1 coactivator binding, dose response, biochemical, TR-FRET, ERα LBD (AID 737)
T1 sequence (P03372 whole entry): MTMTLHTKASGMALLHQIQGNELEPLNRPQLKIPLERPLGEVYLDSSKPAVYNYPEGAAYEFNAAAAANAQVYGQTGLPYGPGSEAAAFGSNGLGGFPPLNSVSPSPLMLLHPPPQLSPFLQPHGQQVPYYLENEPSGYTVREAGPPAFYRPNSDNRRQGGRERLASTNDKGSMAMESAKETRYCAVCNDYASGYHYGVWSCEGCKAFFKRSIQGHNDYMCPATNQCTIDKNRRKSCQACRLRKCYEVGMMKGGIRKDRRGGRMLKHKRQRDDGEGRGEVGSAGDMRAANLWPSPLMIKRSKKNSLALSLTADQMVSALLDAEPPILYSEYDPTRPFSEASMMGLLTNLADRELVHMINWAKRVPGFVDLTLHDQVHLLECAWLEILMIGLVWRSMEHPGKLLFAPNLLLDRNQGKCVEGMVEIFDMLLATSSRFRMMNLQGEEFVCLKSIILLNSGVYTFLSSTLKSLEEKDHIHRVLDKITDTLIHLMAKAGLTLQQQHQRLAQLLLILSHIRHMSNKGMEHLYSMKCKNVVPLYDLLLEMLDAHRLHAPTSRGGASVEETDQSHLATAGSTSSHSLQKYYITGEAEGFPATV

Melanocortin receptor 4 = Melanocortin receptor 4 (Homo sapiens, UniProt P32245); type: functional, cell-based;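 further: Cell-based assay with luminescence read-out, confirmatory dose-response testing for agonist activity of biased ligands at MC4R; human U2OS cells with tagged receptor and beta-arrestin; potency of agonists that increase receptor coupling to beta-arrestin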
Sequence of Melanocortin receptor 4 (P32245 whole entry): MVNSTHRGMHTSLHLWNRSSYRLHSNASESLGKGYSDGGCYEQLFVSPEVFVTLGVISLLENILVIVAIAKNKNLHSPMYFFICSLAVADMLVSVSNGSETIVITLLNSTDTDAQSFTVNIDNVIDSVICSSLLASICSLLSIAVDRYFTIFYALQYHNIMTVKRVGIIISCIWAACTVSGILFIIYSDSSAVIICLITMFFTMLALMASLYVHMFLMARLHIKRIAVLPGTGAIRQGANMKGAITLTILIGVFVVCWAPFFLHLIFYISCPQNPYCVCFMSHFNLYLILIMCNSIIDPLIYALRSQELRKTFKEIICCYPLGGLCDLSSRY

Estrogen receptor [2] = molecular target: T1, Estrogen receptor; experiment: ERα–SRC-3 coactivator interaction inhibitors, confirmation, orthogonal assay, biochemical, ELISA, streptavidin-HRP readout (AID 1079)
[3] = molecular target: DNA dC->dU-editing enzyme APOBEC-3A (Homo sapiens, UniProt P31941); experiment: Dose Response confirmation of small molecule APOBEC3A DNA Deaminase Inhibitors via a fluorescence-based single-stranded DNA deaminase assay. [Related pubchem assays (depositor defined):AID493011, AID493024]; type: functional
Sequence of DNA dC->dU-editing enzyme APOBEC-3A (P31941 whole entry): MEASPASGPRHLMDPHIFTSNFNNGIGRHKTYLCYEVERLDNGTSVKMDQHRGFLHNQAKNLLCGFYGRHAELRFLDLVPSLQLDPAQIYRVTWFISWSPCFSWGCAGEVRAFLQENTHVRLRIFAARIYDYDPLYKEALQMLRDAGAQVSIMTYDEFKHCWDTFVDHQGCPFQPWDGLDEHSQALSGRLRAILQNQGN

[4] = molecular target: Eukaryotic translation initiation factor 4H (Homo sapiens, UniProt Q15056); experiment: human eIF4H binding inhibitors, primary screen, translation initiation inhibitor project, biochemical, uHTS, fluorescence polarization (AID 2012)
[5] = molecular target: Polyadenylate-binding protein 1 (Homo sapiens, UniProt P11940); experiment: PABP poly(A) RNA binding inhibitors, primary screen, biochemical, fluorescence polarization, uHTS (AID 2014)
Sequence of Polyadenylate-binding protein 1 (P11940 whole entry): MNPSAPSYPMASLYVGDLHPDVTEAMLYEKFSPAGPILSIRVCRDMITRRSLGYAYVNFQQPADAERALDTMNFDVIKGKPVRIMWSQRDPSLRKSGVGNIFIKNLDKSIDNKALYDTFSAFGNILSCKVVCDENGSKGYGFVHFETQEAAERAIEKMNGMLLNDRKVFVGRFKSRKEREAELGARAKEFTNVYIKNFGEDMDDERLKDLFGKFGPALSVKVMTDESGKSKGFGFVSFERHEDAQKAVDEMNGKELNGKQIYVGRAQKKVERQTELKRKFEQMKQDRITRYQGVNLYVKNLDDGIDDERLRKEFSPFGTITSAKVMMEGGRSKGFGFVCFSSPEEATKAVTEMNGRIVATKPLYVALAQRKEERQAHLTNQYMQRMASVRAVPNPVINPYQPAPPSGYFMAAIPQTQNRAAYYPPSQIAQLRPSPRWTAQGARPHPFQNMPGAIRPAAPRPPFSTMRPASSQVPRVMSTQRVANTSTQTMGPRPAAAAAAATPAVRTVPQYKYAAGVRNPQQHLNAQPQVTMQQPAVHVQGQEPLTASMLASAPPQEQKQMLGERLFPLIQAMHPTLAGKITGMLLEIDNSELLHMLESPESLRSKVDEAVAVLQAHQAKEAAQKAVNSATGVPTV

[6] = molecular target: DNA dC->dU-editing enzyme APOBEC-3G (Homo sapiens, UniProt Q9HC16); type: functional;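 further: Dose-response counterscreen measuring inhibition of APOBEC3G DNA deaminase activity, run while confirming APOBEC3A inhibitors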
Sequence of DNA dC->dU-editing enzyme APOBEC-3G (Q9HC16 whole entry): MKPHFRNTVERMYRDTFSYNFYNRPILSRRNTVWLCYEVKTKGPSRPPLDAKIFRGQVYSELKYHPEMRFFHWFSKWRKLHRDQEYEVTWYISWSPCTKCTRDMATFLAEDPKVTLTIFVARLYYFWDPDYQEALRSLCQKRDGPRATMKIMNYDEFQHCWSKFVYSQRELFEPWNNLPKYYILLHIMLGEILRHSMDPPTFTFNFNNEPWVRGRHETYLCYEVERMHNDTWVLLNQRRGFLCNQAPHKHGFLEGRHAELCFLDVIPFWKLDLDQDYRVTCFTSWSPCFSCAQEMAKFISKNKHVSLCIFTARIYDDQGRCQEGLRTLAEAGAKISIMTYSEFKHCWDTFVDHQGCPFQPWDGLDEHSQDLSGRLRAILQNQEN

[7] = molecular target: T2, Eukaryotic translation initiation factor 2-alpha kinase 3 (Homo sapiens, UniProt Q9NZJ5); experiment: Dose response cell-based high-throughput screening assay to measure PERK inhibition. [Related pubchem assays: 1416 ]; type: functional
T2 sequence (Q9NZJ5 whole entry): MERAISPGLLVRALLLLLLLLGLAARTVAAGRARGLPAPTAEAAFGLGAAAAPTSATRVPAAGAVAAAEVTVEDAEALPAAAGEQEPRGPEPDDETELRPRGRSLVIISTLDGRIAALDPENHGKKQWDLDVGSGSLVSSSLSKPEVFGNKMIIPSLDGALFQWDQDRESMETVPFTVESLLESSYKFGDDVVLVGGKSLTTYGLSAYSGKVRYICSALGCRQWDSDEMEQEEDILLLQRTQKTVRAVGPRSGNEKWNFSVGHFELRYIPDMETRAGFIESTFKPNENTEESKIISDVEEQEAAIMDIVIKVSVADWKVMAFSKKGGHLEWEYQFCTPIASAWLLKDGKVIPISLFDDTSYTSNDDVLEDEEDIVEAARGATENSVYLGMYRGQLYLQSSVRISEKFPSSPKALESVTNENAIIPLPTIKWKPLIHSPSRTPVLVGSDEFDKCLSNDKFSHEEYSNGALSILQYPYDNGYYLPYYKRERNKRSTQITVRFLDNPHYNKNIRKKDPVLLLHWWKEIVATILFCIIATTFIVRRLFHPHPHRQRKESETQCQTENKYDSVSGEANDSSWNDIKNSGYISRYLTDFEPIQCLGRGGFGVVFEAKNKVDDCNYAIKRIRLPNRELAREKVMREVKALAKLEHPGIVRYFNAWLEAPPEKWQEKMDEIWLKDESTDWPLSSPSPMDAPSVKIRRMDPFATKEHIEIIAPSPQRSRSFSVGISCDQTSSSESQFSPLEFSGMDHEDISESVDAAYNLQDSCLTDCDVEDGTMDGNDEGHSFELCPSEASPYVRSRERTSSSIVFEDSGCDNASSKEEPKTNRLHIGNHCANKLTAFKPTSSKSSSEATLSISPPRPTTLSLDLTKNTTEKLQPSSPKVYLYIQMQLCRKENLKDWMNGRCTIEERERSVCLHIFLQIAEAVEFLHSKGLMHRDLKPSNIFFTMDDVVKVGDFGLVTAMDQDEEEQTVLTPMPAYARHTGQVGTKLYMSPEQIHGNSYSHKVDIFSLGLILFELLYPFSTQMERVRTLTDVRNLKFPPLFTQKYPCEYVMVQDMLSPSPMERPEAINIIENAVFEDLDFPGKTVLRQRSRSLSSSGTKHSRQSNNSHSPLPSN

[8] = molecular target: T2, Eukaryotic translation initiation factor 2-alpha kinase 3; experiment: Counterscreen assay for PERK inhibitors: Dose response cell-based high throughput screening assay to measure inhibition of PERK at 6 hours. [Related pubchem assays: 1522, 1416 ]; type: functional
Oxytocin receptor = Oxytocin receptor (Homo sapiens, UniProt P30559); experiment: Counterscreen for vasopressin 1 receptor (V1R) agonists: Fluorescence-based cell-based high throughput dose response assay for agonists of the Oxytocin Receptor (OXTR). [Related pubchem assays: 2435 (Primary screen (OXTR agonists in singlicate)), 434964 (Confirmation screen (V1R agonists in triplicate)), 434969 (Counterscreen (OXTR agonists in …; type: functional
Sequence of Oxytocin receptor (P30559 whole entry, the tested form may be a part): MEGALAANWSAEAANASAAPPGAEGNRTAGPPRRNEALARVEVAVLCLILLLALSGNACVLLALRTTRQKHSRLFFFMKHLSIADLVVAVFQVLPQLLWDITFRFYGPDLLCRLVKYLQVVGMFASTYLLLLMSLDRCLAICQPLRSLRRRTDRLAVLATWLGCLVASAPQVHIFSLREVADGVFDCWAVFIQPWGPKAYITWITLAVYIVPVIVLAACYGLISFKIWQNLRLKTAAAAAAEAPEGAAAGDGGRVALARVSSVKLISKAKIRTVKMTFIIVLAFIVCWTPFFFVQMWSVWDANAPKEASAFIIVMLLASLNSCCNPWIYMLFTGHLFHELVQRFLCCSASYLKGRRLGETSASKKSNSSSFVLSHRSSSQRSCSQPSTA

[9] = molecular target: T3, RNA-binding protein pos-1 (Caenorhabditis elegans, UniProt G5EF15); experiment: inhibitors of POS-1/mex-3 RNA binding, dose response, biochemical, fluorescence polarization (AID 1964);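 further: purified POS-1 fused to maltose binding protein made in E. coli; potency of compounds blocking POS-1 binding to fluorescent RNA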
T3 sequence (G5EF15 whole entry): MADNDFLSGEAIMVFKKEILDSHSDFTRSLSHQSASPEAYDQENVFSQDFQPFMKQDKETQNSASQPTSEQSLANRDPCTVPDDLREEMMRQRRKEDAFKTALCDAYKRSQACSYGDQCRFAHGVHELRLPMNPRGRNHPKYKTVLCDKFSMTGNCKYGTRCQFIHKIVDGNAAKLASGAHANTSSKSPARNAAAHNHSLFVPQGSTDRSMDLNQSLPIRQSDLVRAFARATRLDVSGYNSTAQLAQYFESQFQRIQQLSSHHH

Vasopressin V1a receptor = Vasopressin V1a receptor (Homo sapiens, UniProt P37288); experiment: Fluorescence-based cell-based high throughput dose response screening assay for agonists of the vasopressin 1 receptor (V1R).; type: functional
Sequence of Vasopressin V1a receptor (P37288 whole entry): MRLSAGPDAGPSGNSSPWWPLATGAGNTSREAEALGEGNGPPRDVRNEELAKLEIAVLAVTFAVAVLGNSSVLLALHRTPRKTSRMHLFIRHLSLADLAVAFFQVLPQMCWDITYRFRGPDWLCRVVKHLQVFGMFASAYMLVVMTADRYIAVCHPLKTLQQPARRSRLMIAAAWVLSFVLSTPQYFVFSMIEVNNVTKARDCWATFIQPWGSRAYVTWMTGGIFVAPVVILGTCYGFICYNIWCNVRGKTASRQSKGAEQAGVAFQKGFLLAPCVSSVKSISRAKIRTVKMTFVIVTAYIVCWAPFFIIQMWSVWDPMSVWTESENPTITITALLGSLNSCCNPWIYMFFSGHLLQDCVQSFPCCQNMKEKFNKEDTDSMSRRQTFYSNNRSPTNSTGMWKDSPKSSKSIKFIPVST

[10] = molecular target: T4, Zinc finger protein mex-5 (Caenorhabditis elegans, UniProt Q9XUB2); experiment: MEX-5/TCR-2 RNA interaction inhibitors, dose response, biochemical, C. elegans, fluorescence polarization (AID 1960)
T4 sequence (Q9XUB2 whole entry): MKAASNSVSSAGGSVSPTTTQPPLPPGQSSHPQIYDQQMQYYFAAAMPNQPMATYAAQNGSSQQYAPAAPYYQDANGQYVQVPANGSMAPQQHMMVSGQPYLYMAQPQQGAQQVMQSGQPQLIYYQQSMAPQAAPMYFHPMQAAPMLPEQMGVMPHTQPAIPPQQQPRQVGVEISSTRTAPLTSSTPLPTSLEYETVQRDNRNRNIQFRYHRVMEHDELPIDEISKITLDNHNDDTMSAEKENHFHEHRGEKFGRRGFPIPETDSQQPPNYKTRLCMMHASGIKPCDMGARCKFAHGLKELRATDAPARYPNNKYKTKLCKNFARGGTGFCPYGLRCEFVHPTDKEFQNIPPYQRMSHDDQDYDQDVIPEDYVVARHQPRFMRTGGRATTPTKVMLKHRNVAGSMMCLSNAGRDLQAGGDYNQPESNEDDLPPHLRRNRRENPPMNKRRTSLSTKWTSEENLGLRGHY

EC50 (Estrogen receptor [1]): 13.2 µM (active)
EC50 (Melanocortin receptor 4): > 89.2 µM (inactive)
Compound: COc1cc(C(=O)Nc2nnc(-c3sccc3C)s2)cc(OC)c1OC

EC50 [7]: > 55.7 µM (not active)
EC50 [8]: > 55.7 µM (not active)
Compound: Oc1cnnc(N/N=C/c2cccs2)n1

The remaining lines, values behind:

Compound: O=C(CCCn1c(=S)[nH]c2ccccc2c1=O)N1CCN(Cc2cccc3ccccc23)CC1
IC50 (Estrogen receptor [2]): 0.17 µM (not active)

Compound: CC(=O)OC(C[N+]1(C)CCCCCC1)c1ccccc1 (stereo not drawn)
IC50 [3]: 2.79 µM (active)
IC50 [4]: > 100 µM (inactive)
IC50 [5]: 9.62 µM (active)
IC50 [6]: 2.4 µM (active)

Compound: Cc1cc(C)c(/C=C2\C(=O)Nc3ccccc32)[nH]1 [SEMAXANIB]
EC50 (Oxytocin receptor): 11.5 µM (not active)
EC50 [9]: > 300 µM (not active)
EC50 (Vasopressin V1a receptor): 12.1 µM (not active)
EC50 [10]: > 300 µM (not active)
